Results reported in US20250388592A1 (REMYND N.V., priority 2022, published 2025).
pEC50: −log10 of the molar value.

Test system: M17_3TAU(P301L) cells
Test: TAU-induced cytotoxicity (LDH) in the neuroblastoma tauopathy model
Format: cell-based
Conditions: Homo sapiens, 168 h, inhibition of TAU-induced toxicity, 7 days retinoic acid differentiation, LDH readout
Description: A TAU expression plasmid was constructed by sub-cloning the cDNA encoding for human TAU-P301L protein, wherein proline at position 301 is substituted by a leucine residue, into mammalian expression vector pcDNA3.1 resulting in the plasmid pcDNA3.1-TAUP301L. Plasmids pcDNA3.1 and pcDNA3.1-TAU P301L were transfected into human neuroblastoma cells (BE-M17; ATCC No. CRL-2267™) using lipofectamine reagent and subsequently, independent clonal cell lines with the plasmids stably integrated into the genome were selected by antibiotic resistance selection (Geneticin (G418)), resulting in cell lines M17.pcDNA3 and M17_3TAUP301L. Expression of the TAUP301 L gene in the M17_3TAUP301 L cells was confirmed by Western blot analysis.
Differentiation of the cells with RA leads to phosphorylation and subsequent aggregation of TAU, inducing a tauopathy in these cells. Cytotoxicity of cells was measured by quantification of lactate dehydrogenase (LDH) levels. In dead cells LDH is leaked out of the cells into the medium due to a loss of plasma-membrane integrity.
Briefly, 3 days preceding the experiment pre-cultures of M17.pcDNA3 and M17_3TAU(P301L) cells were prepared, starting from a stock culture, at a density of 50.000-100.000 cells/cm2 in detection medium (Optimem Reduced Serum without phenol red (Gibco, Cat. 31985-047) supplemented with 1% fetal calf serum (FCS), 1 mM sodium pyruvate, 1×non-essential amino acids (NEAA), 500 μg/ml G418 and 0.5×antibiotic/antimycotic (ABAM)). At the day of the experiment these precultures were diluted to ˜[…] in detection medium without FCS and 60 μL of this suspension is dispensed per well into a 96-well microtiter plate. After 3 hours of incubation at 37° C./5% C02 an equal volume of detection medium containing 2.5 μM RA was added and subsequently incubated for 7 days at 37° C./5% CO2. After 7 days, LDH activity was determined using the Promega Cytotox 96 Non-Radioactive cytotoxicity assay (Cat. G1780), according the manufacturer's instructions. Cytotoxicity is measured as the ratio of LDH increase in the supernatant divided by the LDH increase in the total cell suspension (sum of the LDH measured in cells and supernatant). Toxicity was determined after 7 days of differentiation with retinoic acid in M17_3TAU(P301 L) cells compared to M17.pcDNA3 cells.
The M17_3TAU(P301L) cell line makes it possible to assess the ability of novel compounds to inhibit TAU-induced cytotoxicity. […] Compounds were tested for their ability to hamper TAU-induced toxicity at different concentrations, ranging from low non-effective concentrations to high potent concentrations. Afterwards, the dose-dependent inhibition curve was used to calculate their EC50 (Table 3B).

Compound | pEC50
COc1cccc(CN2CC3(C2)CN(C(=O)CC2CCC(F)(F)CC2)C3)c1 [Cpd B074] | 8.44
COc1cccc(CN2CC3(C2)CN(C(=O)CN(C)c2ccccc2)C3)c1 [Cpd B075] | 7.21
Cc1cccnc1CN1CC2(C1)CN(C(=O)Cc1ccc(F)c(C(F)(F)F)c1)C2 [Cpd B077] | 8.43
Cc1cccnc1CN1CC2(C1)CN(C(=O)Cc1ccc(C(F)(F)F)cc1)C2 [Cpd B078] | 7.90
Cc1cccnc1CN1CC2(C1)CN(C(=O)Cc1cccc(C(F)(F)F)c1)C2 [Cpd B079] | 7.87
Cc1cccnc1CN1CC2(C1)CN(C(=O)CCC1CCCCC1)C2 [Cpd B081] | 8.01
Cc1cccnc1CN1CC2(C1)CN(C(=O)CC1CCCCC1)C2 [Cpd B082] | 7.55
Cc1cccnc1CN1CC2(C1)CN(C(=O)CC1CCC(F)(F)CC1)C2 [Cpd B083] | 7.72
Cc1cccnc1CN1CC2(C1)CN(C(=O)C(C)(C)Oc1ccc(Cl)cc1)C2 [Cpd B085] | 5.42
Cc1cccnc1CN1CC2(C1)CN(C(=O)c1cccc3cc[nH]c13)C2 [Cpd B086] | 6.36
Cc1cccnc1CN1CC2(C1)CN(C(=O)C(F)(F)c1ccc(F)cc1)C2 [Cpd B087] | 5.99
O=C(CCC1CCCCC1)N1CC2(CN(Cc3ccc(F)cc3)C2)C1 [Cpd B089] | 8.53
O=C(Cc1ccc(OC(F)(F)F)cc1)N1CC2(CN(Cc3ccc(F)cc3)C2)C1 [Cpd B090] | 8.04
O=C(Cc1cccc(C(F)(F)F)c1)N1CC2(CN(Cc3ccc(F)cc3)C2)C1 [Cpd B091] | 8.34
N#Cc1ccc(CC(=O)N2CC3(CN(Cc4ccc(F)cc4)C3)C2)cc1 [Cpd B092] | 7.86
O=C(Cc1ccccc1F)N1CC2(CN(Cc3ccc(F)cc3)C2)C1 [Cpd B093] | 7.13
O=C(COc1ccc(F)cc1)N1CC2(CN(Cc3ccc(F)cc3)C2)C1 [Cpd B098] | 7.15

Compound | pEC50
O=C(N1CC2(CN(Cc3ccc(F)cc3)C2)C1)C(F)(F)c1ccc(F)cc1 [Cpd B099] | 7.07
Cc1nc(CN2CC3(C2)CN(C(=O)Cc2cccc(C(F)(F)F)c2)C3)cs1 [Cpd B100] | 6.58
Cc1nc(CN2CC3(C2)CN(C(=O)Cc2ccc(F)c(C(F)(F)F)c2)C3)cs1 [Cpd B101] | 7.12
Cc1nc(CN2CC3(C2)CN(C(=O)CC2CCC(F)(F)CC2)C3)cs1 [Cpd B102] | 7.58
Cc1nc(CN2CC3(C2)CN(C(=O)COc2ccc(F)cc2)C3)cs1 [Cpd B103] | 5.70
O=C(CC1CCC(F)(F)CC1)N1CC2(CN(Cc3ccc(F)cc3C(F)(F)F)C2)C1 [Cpd B104, 2-(4,4-difluorocyclohexyl)-1-(6-(4-fluoro-2-(trifluoromethyl)benzyl)-2,6-diazaspiro[3.3]heptan-2-yl)ethan-1-one] | 8.79
O=C(CC1CCC(F)(F)CC1)N1CC2(CN(Cc3ccc(F)cc3F)C2)C1 [Cpd B105] | 8.59
O=C(CC1CCC(F)(F)CC1)N1CC2(CN(Cc3ccc(Cl)cc3F)C2)C1 [Cpd B106] | > 9.72
O=C(CC1CCC(F)(F)CC1)N1CC2(CN(Cc3ccc(F)cc3Cl)C2)C1 [Cpd B107] | > 9.72
O=C(CC1CCC(F)(F)CC1)N1CC2(CN(Cc3ccccc3C(F)(F)F)C2)C1 [Cpd B108] | 8.59
O=C(CC1CCC(F)(F)CC1)N1CC2(CN(Cc3ccc(C(F)(F)F)cc3)C2)C1 [Cpd B109] | 7.92
O=C(CC1CCC(F)(F)CC1)N1CC2(CN(Cc3c(F)cccc3C(F)(F)F)C2)C1 [Cpd B110] | 6.75
O=C(CC1CCC(F)(F)CC1)N1CC2(CN(Cc3ccccc3OC(F)F)C2)C1 [Cpd B111] | 8.45
O=C(CC1CCC(F)(F)CC1)N1CC2(CN(Cc3ccc(Cl)cn3)C2)C1 [Cpd B113] | 7.91
O=C(CC1CCC(F)(F)CC1)N1CC2(CN(Cc3ncccc3Cl)C2)C1 [Cpd B114] | 7.87
O=C(CC1CCC(F)(F)CC1)N1CC2(CN(Cc3ccc(F)cn3)C2)C1 [Cpd B115] | 7.38
Cc1cnc(CN2CC3(C2)CN(C(=O)CC2CCC(F)(F)CC2)C3)s1 [Cpd B116] | 7.14
